According to patent US9732094B2, “Arylquinazolines” (Merck Patent GmbH, priority 2013, dated 2017):
Like-named read-outs stand apart in the source and are kept apart here.

Legend:
[1] = target: DNA-PK (Homo sapiens (Human), UniProt P78527); experiment: DNA-PK assay (biochemical), flashplate 33P-ATP kinase assay
Summary of the method: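 Radiometric kinase reaction in streptavidin-coated flashplates, stopped with 200 mM EDTA, then 30 min room-temperature incubation and saline washes.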

[2] = target: DNA-PK phosphorylation at serine 2056 (Homo sapiens (Human), UniProt P78527); experiment: DNA-PK phosphorylation at serine 2056 (cellular), bleomycin-treated HCT116 cells, ELISA; assay type: cell-based; details: read-out: IC50 pDNA-PK
Summary of the method: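 Chemiluminescent ELISA read-out; phospho-specific signal normalised to total DNA-PKcs. Cells (HCT116) exposed 6 h to test compound plus 10 μM bleomycin to induce double-strand breaks; DMSO control served as blank.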

[3] = target: Kv11.1 (hERG) (Homo sapiens (Human), UniProt Q12809); experiment: Kv11.1 (hERG) ion channel activity (patch clamp assay), HEK293 cells transfected with hERG gene
Sequence of Kv11.1 (hERG) (Q12809 whole entry): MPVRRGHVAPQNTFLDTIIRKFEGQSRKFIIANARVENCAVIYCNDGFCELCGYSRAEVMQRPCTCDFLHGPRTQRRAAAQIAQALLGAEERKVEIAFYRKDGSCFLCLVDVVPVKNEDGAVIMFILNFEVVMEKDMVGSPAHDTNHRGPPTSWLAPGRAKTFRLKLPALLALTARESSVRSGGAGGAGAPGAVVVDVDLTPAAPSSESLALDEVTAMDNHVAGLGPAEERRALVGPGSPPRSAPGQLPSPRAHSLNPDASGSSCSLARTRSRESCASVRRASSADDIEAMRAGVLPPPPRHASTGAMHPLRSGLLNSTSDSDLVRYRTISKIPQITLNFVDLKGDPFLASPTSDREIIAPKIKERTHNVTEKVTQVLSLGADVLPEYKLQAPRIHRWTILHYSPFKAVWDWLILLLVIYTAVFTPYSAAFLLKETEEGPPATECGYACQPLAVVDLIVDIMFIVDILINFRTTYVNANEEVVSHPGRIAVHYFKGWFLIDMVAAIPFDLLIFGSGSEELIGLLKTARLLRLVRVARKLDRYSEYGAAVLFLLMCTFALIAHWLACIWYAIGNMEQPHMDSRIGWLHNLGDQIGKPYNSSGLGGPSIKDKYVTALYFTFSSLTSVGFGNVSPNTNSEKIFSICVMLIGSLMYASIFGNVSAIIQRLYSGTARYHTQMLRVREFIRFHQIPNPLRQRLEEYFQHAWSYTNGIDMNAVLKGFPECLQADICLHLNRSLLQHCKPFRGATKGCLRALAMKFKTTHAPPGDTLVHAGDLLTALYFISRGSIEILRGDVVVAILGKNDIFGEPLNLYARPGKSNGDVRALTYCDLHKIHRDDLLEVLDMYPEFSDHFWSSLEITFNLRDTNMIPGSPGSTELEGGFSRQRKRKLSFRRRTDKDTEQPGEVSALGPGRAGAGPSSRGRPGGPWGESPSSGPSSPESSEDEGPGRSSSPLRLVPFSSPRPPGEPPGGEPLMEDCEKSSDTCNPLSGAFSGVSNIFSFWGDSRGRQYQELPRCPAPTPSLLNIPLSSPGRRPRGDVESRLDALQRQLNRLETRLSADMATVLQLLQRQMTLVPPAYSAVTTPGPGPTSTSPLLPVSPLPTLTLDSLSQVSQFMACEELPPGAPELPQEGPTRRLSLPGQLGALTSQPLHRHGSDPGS

[4] = cellular, HCT116 cells, 10 μM bleomycin, six hours
[5] = Ki [Kv1.11 hERG], patch clamp, HEK293 transfected with hERG gene
[6] = cellular DNA-PK phosphorylation at serine 2056, HCT116
[7] = Ki [Kv1.11 hERG], hERG patch clamp assay (cells without asterisk)
[8] = read-out: Ki [Kv1.11 hERG], hERG patch clamp assay (cells without asterisk)
[9] = read-out: Ki [Kv1.11 hERG], Table 5
[10] = read-out: Ki [Kv1.11 hERG], patch clamp, HEK293 transfected with hERG gene

IC50 ([1]; enzymatic, 5 μM ATP)	IC50 [2, 4]	IC50 ([1]; biochemical DNA-PK assay)	IC50 [2, 6]	Structure (SMILES)	other results
< 3 nM	10000 to 30000 nM	–	–	C#Cc1nc(-c2cc(C(O)c3nccs3)ccc2F)c2ccc(N3CCOCC3)cc2n1 (stereo not drawn) [Example 216, [3-(2-Ethynyl-7-morpholin-4-yl-quinazolin-4-yl)-4-fluorophenyl]-thiazol-2-yl-methanol]	Ki [3, 5]: 10000 to 15000 nM
–	–	< 3 nM	< 500 nM	Cc1nccnc1[C@H](O)c1ccc(F)c(-c2ncnc3cc(N4CCOCC4)cc(F)c23)c1 [Example 248, (R)-[4-Fluoro-3-(5-fluoro-7-morpholin-4-ylquinazolin-4-yl)-phenyl]-(3-methyl-pyrazin-2-yl)-methanol]	Ki [3, 8]: > 25000 nM
–	–	–	–	Cc1nc(C(O)c2ccc(F)c(-c3ncnc4cc(N5CCOCC5)ccc34)c2)sc1CO (stereo not drawn) [Example 200, [4-Fluoro-3-(7-morpholin-4-yl-quinazolin-4-yl)-phenyl]-(5-hydroxy-methyl-4-methyl-thiazol-2-yl)-methanol]	IC50 ([1]; Table 5): 3 to 7 nM; IC50 ([2]; Table 5, HCT116 cells): 5000 to 10000 nM; Ki [3, 9]: > 25000 nM
3 to 7 nM	< 500 nM	–	–	OC(c1cc(-c2ncnc3cc(N4CCOCC4)ccc23)c(F)cc1Cl)c1nccnc1Cl (stereo not drawn) [Example 64, [2-Chloro-4-fluoro-5-(7-morpholin-4-yl-quinazolin-4-yl)phenyl]-(3-chloropyrazin-2-yl)-methanol]	Ki [3, 5]: 10000 to 15000 nM
–	–	–	–	OC(c1ccc(F)c(-c2ncnc3cc(C4=CCOCC4)ccc23)c1)c1nccs1 (stereo not drawn) [Example 139, {3-[7-(3,6-Dihydro-2H-pyran-4-yl)-quinazolin-4-yl]-4-fluoro-phenyl}-thiazol-2-ylmethanol]	IC50 ([1]; Table 5): 7 to 30 nM; IC50 ([2]; Table 5, HCT116 cells): 10000 to 30000 nM; Ki [3, 9]: > 25000 nM
> 30 nM	5000 to 10000 nM	–	–	COc1cc(C)c(C(O)c2cc(-c3ncnc4cc(N5CCOCC5)ccc34)c(F)cc2Cl)nn1 (stereo not drawn) [Example 109, [2-Chloro-4-fluoro-5-(7-morpholin-4-yl-quinazolin-4-yl)-phenyl]-(6-methoxy-4-methylpyridazin-3-yl)methanol]	Ki [3, 10]: > 25000 nM
3 to 7 nM	10000 to 30000 nM	–	–	COc1ccc(C(C)(O)c2cc(-c3ncnc4cc(N5CCOCC5)ccc34)c(F)cc2Cl)nn1 (stereo not drawn) [Example 125, 1-[2-Chloro-4-fluoro-5-(7-morpholin-4-yl-quinazolin-4-yl)-phenyl]-1-(6-methoxy-pyridazin-3-yl)-ethanol]	Ki [3, 5]: 15000 to 25000 nM
–	–	3 to 7 nM	500 to 5000 nM	Cn1ncc2c(C(O)c3cc(-c4ncnc5cc(N6CCOCC6)ccc45)c(F)cc3F)ncnc21 (stereo not drawn) [Example 403, [2,4-Difluoro-5-(7-morpholin-4-yl-quinazolin-4-yl)-phenyl]-(1-methyl-1H-pyrazolo[3,4-d}-pyrimidin-4-yl)-methanol]	Ki [3, 7]: 15000 to 25000 nM
–	–	7 to 30 nM	5000 to 10000 nM	COc1nccnc1C(C(N)=O)c1cc(-c2ncnc3cc(N4CCOCC4)ccc23)ccc1Cl (stereo not drawn) [Example 304, 2-[2-Chloro-5-(7-morpholin-4-yl-quinazolin-4-yl)-phenyl]-2-(3-methoxy-pyrazin-2-yl)acetamide]	Ki [3, 8]: > 25000 nM
–	–	–	–	OCc1csc(C(O)c2cc(-c3ncnc4cc(N5CCOCC5)ccc34)c(F)cc2Cl)n1 (stereo not drawn) [Example 142, [2-Chloro-4-fluoro-5-(7-morpholin-4-yl-quinazolin-4-yl)-phenyl]-(4-hydroxymethyl-thiazol-2-yl)-methanol]	IC50 ([1]; Table 5): < 3 nM; IC50 ([2]; Table 5, HCT116 cells): 500 to 5000 nM; Ki [3, 9]: < 10000 nM
7 to 30 nM	500 to 5000 nM	–	–	CC(C#N)Oc1ccc(C(O)c2cc(-c3ncnc4cc(N5CCOCC5)ccc34)c(F)cc2Cl)nn1 (single isomer, unassigned) [Example 104, 2-(6-{[2-Chloro-4-fluoro-5-(7-morpholin-4-yl-quinazolin-4-yl)-phenyl]hydroxy-methyl}pyridazin-3-yloxy)propionitrile]	Ki [3, 10]: 15000 to 25000 nM
–	–	3 to 7 nM	< 500 nM	COc1nccnc1C(O)c1cc(-c2ncnc3cc(N4CCOCC4)ccc23)c(F)cc1F (stereo not drawn) [Example 453, [2,4-Difluoro-5-(7-morpholin-4-yl-quinazolin-4-yl)-phenyl]-(3-methoxy-pyrazin-2-yl)-methanol]	Ki [3, 7]: 10000 to 15000 nM
–	–	< 3 nM	< 500 nM	OC(c1cc(-c2ncnc3cc(N4CCOCC4)ccc23)c(F)cc1Cl)c1ncnc2ccoc12 (stereo not drawn) [Example 441, [2-Chloro-4-fluoro-5-(7-morpholin-4-yl-quinazolin-4-yl)-phenyl]furo[3,2-d}-pyrimidin-4-yl-methanol]	Ki [3, 7]: 10000 to 15000 nM
3 to 7 nM	500 to 5000 nM	–	–	OC(c1ccc(F)c(-c2ncnc3cc(N4CCOCC4)ccc23)c1)c1nccs1 (stereo not drawn) [Example 211, [4-Fluoro-3-(7-morpholin-4-yl-quinazolin-4-yl)-phenyl]thiazol-2-ylmethanol]	Ki [3, 10]: > 25000 nM
3 to 7 nM	500 to 5000 nM	–	–	Nc1nccnc1C(O)c1cc(-c2ncnc3cc(N4CCOCC4)ccc23)c(F)cc1Cl (stereo not drawn) [Example 117, (3-Amino-pyrazin-2-yl)-[2-chloro-4-fluoro-5-(7-morpholin-4-yl-quinazolin-4-yl)-phenyl]methanol]	Ki [3, 5]: 15000 to 25000 nM
–	–	–	–	Cc1csc(C(O)c2cc(-c3ncnc4cc(N5CCOCC5)ccc34)c(F)cc2Cl)n1 (stereo not drawn) [Example 181, [2-Chloro-4-fluoro-5-(7-morpholin-4-yl-quinazolin-4-yl)-phenyl]-(4-methyl-thiazol-2-yl)-methanol]	IC50 ([1]; Table 5): < 3 nM; IC50 ([2]; Table 5, HCT116 cells): 500 to 5000 nM; Ki [3, 9]: < 10000 nM
3 to 7 nM	500 to 5000 nM	–	–	OC(c1ccc(F)c(-c2ncnc3cc(N4CCOCC4)ccc23)c1)c1nccnc1N1CCCC1 (stereo not drawn) [Example 14, [4-Fluoro-3-(7-morpholin-4-yl-quinazolin-4-yl)phenyl]-(3-pyrrolidin-1-yl-pyrazin-2-yl)methanol]	Ki [3, 10]: > 25000 nM
–	–	3 to 7 nM	< 500 nM	COc1nccnc1C(O)c1cc(-c2ncnc3cc(N4CCOCC4)ccc23)c(F)cc1F (stereo not drawn) [Example 467, [2,4-Difluoro-5-(7-morpholin-4-yl-quinazolin-4-yl)-phenyl]-(3-methoxy-pyrazin-2-yl)-methanol]	Ki [3, 8]: > 25000 nM
–	–	< 3 nM	< 500 nM	OC(c1cc(-c2ncnc3cc(N4CCOCC4)ccc23)c(F)cc1Cl)c1ncnc2ccoc12 (stereo not drawn) [Example 440, [2-Chloro-4-fluoro-5-(7-morpholin-4-yl-quinazolin-4-yl)-phenyl]furo[3,2-d}-pyrimidin-4-yl-methanol]	Ki [3, 7]: 15000 to 25000 nM
–	–	< 3 nM	< 500 nM	OC(c1cc(-c2ncnc3cc(N4CCOCC4)ccc23)ccc1F)c1ncnc2sccc12 (stereo not drawn) [Example 406, [2-Fluoro-5-(7-morpholin-4-yl-quinazolin-4-yl)-phenyl]thieno[2,3-d}-pyrimidin-4-yl-methanol]	Ki [3, 7]: 10000 to 15000 nM
3 to 7 nM	500 to 5000 nM	–	–	OC(c1ccc2nccn2n1)c1cc(-c2ncnc3cc(N4CCOCC4)ccc23)c(F)cc1Cl (stereo not drawn) [Example 56, [2-Chloro-4-fluoro-5-(7-morpholin-4-yl-quinazolin-4-yl)phenyl]-imidazo[1,2-b]pyridazin-6-ylmethanol]	Ki [3, 5]: 10000 to 15000 nM
–	–	< 3 nM	500 to 5000 nM	OC(c1ccc(F)c(-c2ncnc3cc(N4CCOCC4)ccc23)c1)c1nnc2ccccn12 (stereo not drawn) [Example 399, [4-Fluoro-3-(7-morpholin-4-yl-quinazolin-4-yl)-phenyl]-[1,2,4]-triazolo[4,3-a]pyridin-3-ylmethanol]	Ki [3, 8]: > 25000 nM
3 to 7 nM	500 to 5000 nM	–	–	COc1ccc(C(O)c2cc(-c3nc(Cl)nc4cc(N5CCOCC5)ccc34)c(F)cc2Cl)nn1 (stereo not drawn) [Example 132, [2-Chloro-5-(2-chloro-7-morpholin-4-yl-quinazolin-4-yl)-4-fluorophenyl]-(6-methoxy-pyridazin-3-yl)-methanol]	Ki [3, 10]: > 25000 nM
–	–	3 to 7 nM	< 500 nM	Cn1c(C(O)c2cc(-c3ncnc4cc(N5CCOCC5)ccc34)c(F)cc2Cl)cccc1=O (stereo not drawn) [Example 435, 6-{[2-Chloro-4-fluoro-5-(7-morpholin-4-yl-quinazolin-4-yl)-phenyl]hydroxy-methyl}-l-methyl-1H-pyridin-2-one]	Ki [3, 8]: > 25000 nM
–	–	< 3 nM	< 500 nM	OC(c1cc(-c2ncnc3cc(N4CCOCC4)ccc23)c(F)cc1F)c1ncnc2ccsc12 (stereo not drawn) [Example 439, [2,4-Difluoro-5-(7-morpholin-4-yl-quinazolin-4-yl)-phenyl]thieno[3,2-d}-pyrimidin-4-yl-methanol]	Ki [3, 7]: 10000 to 15000 nM
< 3 nM	< 500 nM	–	–	OC(c1ccc(F)c(-c2ncnc3cc(N4CCOCC4)ccc23)c1)c1nc(Cl)cnc1Cl (stereo not drawn) [Example 35, (3,6-Dichloro-pyrazin-2-yl)-[4-fluoro-3-(7-morpholin-4-yl-quinazolin-4-yl)phenyl]-methanol]	Ki [3, 5]: 10000 to 15000 nM

Structure (SMILES)	IC50 ([1]; enzymatic, 5 μM ATP)	IC50 [2, 4]	IC50 ([1]; biochemical DNA-PK assay)	IC50 [2, 6]	other results
OC(c1ccc(F)c(-c2ncnc3cc(N4CCOCC4)ccc23)c1)c1nccnc1OC(F)F (stereo not drawn) [Example 464, (3-Difluoromethoxy-pyrazin-2-yl)-[4-fluoro-3-(7-morpholin-4-yl-quinazolin-4-yl)-phenyl]methanol]	–	–	3 to 7 nM	500 to 5000 nM	Ki [3, 7]: 15000 to 25000 nM
Cn1ncc2c(C(O)c3cc(-c4ncnc5cc(N6CCOCC6)ccc45)ccc3Cl)ncnc21 (stereo not drawn) [Example 385, [2-Chloro-5-(7-morpholin-4-yl-quinazolin-4-yl)-phenyl]-(1-methyl-1H-pyrazolo[3,4-d}-pyrimidin-4-yl)-methanol]	–	–	7 to 30 nM	500 to 5000 nM	Ki [3, 8]: > 25000 nM
